Experimental findings from patent US20110160303A1, “N-ALKYLCARBONYL-AMINO ACID ESTER AND N-ALKYLCARBONYL-AMINO LACTONE COMPOUNDS AND THEIR USE” (Edward Tak WEI, priority 2005, published 2011) are described below.

A word on the Log P: it is the decadic logarithm of the partition coefficient of the neutral form, usually between octanol and water. Broadly, the logP is the decadic logarithm of the partition coefficient of the neutral form, usually between octanol and water.

A short description of series [1]: Octanol/water partition coefficient. In kind it is physicochemical. The protocol:
The octanol/water partition coefficients (given in log P units) for a number of compounds were determined and are shown in Table 7, together with the threshold for cooling on the tongue tested at 40 mM. […] A longer duration of action was not precisely matched with log P values.

The subject of series [2] is skin above the upper lip. Description: Cooling sensation on facial skin, ointment applied to skin above the upper lip. The settings on record: for Duration of Skin Cooling: 40 mM (1% wt/vol) ointment; for Duration of Skin Cooling / Duration of Action On-Off (minutes): On (onset) / Duration of Action On-Off (minutes): duration (offset minus onset) / Duration of Action On-Off (minutes): Off (offset): skin above upper lip; for Duration of Action On-Off (minutes): On (onset): 40 mM (~1% wt/vol) Aquaphor ointment, 40 to 70 mg, time to reach 2 units of coolness; for Duration of Action On-Off (minutes): duration (offset minus onset) / Duration of Action On-Off (minutes): Off (offset): 40 mM Aquaphor ointment; for Duration of Action On-Off (minutes): Off (offset): time when coolness drops below 2 units; for refreshing cooling and absence of skin irritation or eye irritation (“perfect cool”): after facial skin or periorbital applications. It is filed as in vivo, human. The arrangement: key to refreshing cooling and absence of skin irritation or eye irritation (“perfect cool”): (*) denotes compounds with refreshing cooling and absence of skin irritation or eye irritation after facial skin or periorbital applications; a “perfect cool.”. The text has this:
A reliable place for topical application is the skin above the upper lip (above the vermilion border of the lips), on the philtrum, lateral to the philtrum until the nasolabial folds, and on the lower nostrils (subnasale). This part of the face is known to be densely innervated with cold receptors, second only to the surfaces of the eyeball and anogenitalia. A second location is on or below the malar eminence (cheekbone). The skin above the cheekbone is thicker than above the lips, and therefore has a higher threshold for activation. At both loci, tingling, cool and cold sensations in the skin may be experienced and rated for time of onset and intensity.
The intensity of the subjective skin sensation is rated as 0, 1, 2 or 3 with: 0 as no change; 1 as slight coolness, cold, or tingling; 2 as clear-cut signal of coolness, cold, or tingling; and 3 as robust cooling or cold. The intervals for recording sensations are 5 to 10 minutes, until two successive zeroes are obtained. The results (shown in FIGS. 1 and 2) are averaged values of 4 to 6 separate trials in the same individual. The data are plotted using SigmaPlot® (Systat Software, Point Richmond Calif.) and a smoothing function with a negative exponential was used for analysis and statistical fit of the results. Confirmatory trials of cooling action of the long-acting NACE compounds were obtained in 2 to 4 individuals but not quantified for some because of the large number of chemicals that were evaluated.
The onset of drug action is taken as the time to reach 2 units of coolness intensity, and offset of drug action is the time when coolness intensity drops below 2, after previously surpassing 2 units. The duration of cooling action is defined as the offset time minus the onset time. […] The quality of the sensation is noted, for example, as pure refreshing coolness, or if the sensation is accompanied by irritation (stinging or burning). The quality of the sensation is not rated for intensity.
For bioassay on the skin, approximately 30 mg was stirred and dissolved in 3 g of warm liquid Aquaphor® ointment to a yield a 40 mM (˜1% wt/vol) ointment. The exact amount was adjusted so that the molar equivalent was about 35 to 40 mM. After cooling, 40 to 70 mg of the solid ointment was placed on the tip of a plastic stick and applied to the skin above the upper lip, on the philtrum, and lateral to the philtrum, up to the nasolabial folds, of test subjects and the onset and duration of cooling sensations noted.
The intensity of the subjective skin sensation was rated as 0, 1, 2 or 3 with: 0 as no change; 1 as slight coolness, cold, or tingling; 2 as clear signal of coolness, cold, or tingling; and 3 as robust cooling or cold. The intervals for recording sensations were 5 to 10 minutes, until two successive zeroes were obtained. The results (shown in FIGS. 1 and 2) are averaged values of 4 to 6 separate trials in the same individual. The data are plotted using SigmaPlot® (Systat Software, Point Richmond, Calif., USA) and a smoothing function with a negative exponential was used for analysis and statistical fit of the results.
The onset of drug action was taken as the time to reach 2 units of coolness intensity, and offset of drug action was the time when coolness intensity drops below 2, after previously surpassing 2 units. The duration of cooling action was defined as the offset time minus the onset time. […] The quality of the sensation was also noted: such as pure refreshing coolness, or if the sensation was accompanied by irritation (stinging or burning). The quality of the sensation was not rated for intensity.
Test compounds were singly applied to the skin above the upper lips at a 40 to 70 mg dose of a 1% wt/vol ointment.

The subject of series [3] is tongue. Description: Threshold for cooling on the tongue. In kind it is in vivo, human. The settings on record: threshold for cooling on the tongue. On the procedure: Watson et al. (U.S. Pat. No. 4,178,459) tested the properties of N-substituted p-menthane carboxamides on volunteers by putting filter paper (1×1 cm), impregnated with a known amount of compound, onto the dorsal surface of the tongue of the test subject. After 30 seconds, the subject was required to report presence or absence of a cooling effect. […] The average threshold of (−)-menthol for 6 subjects was 0.25 μg, but there was a 100-fold variation in individual sensitivity. As noted above, coolness signals detected from the dorsal surface of the tongue may be confounded by gustatory, olfactory, and other variables, as well as by dilution from saliva. The octanol/water partition coefficients (given in log P units) for a number of compounds were determined and are shown in Table 7, together with the threshold for cooling on the tongue tested at 40 mM. […] A longer duration of action was not precisely matched with log P values.

Series [4] concerns oral cavity. Description: Oral cavity test, substance placed on dorsal surface of the tongue. The note with it: Study 7, 2 mg per dose. It is filed as in vivo, human. On the procedure: The subject is instructed to close and hold the substance in the mouth for at least 10 seconds and not to swallow. The description of sensations is then recorded at 5 minute intervals.
The compounds of Formula (1) and (2) are white crystalline solids at room temperatures. These compounds were tested as such, or mixed 1:1 with powdered or granulated sugar. The test substances were applied at 1 to 5 mg on the mid-point of the dorsal surface of the tongue using a metal spatula or a plastic applicator. After depositing the test substance on the tongue, the subject was instructed to keep the mouth closed and allow the fluids of the mouth to inter-mix with the test substance and to distribute it to the back of the mouth (oropharynx). The presence and duration of subjective sensations from the mouth was then noted.
In normal subjects, the effects of the D-Ala methyl and ethyl ester compounds falling within Formula (1) ((R)-2-[((1R,2S,5R)-2-isopropyl-5-methyl-cyclohexanecarbonyl)-amino]-propionic acid methyl or ethyl ester)) were examined. Three doses of 1, 2 and 4 mg per application were examined and compared to a similar dose of the L-Ala methyl or ester analog ((S)-2-[((1R,2S,5R)-2-isopropyl-5-methyl-cyclohexanecarbonyl)-amino]-propionic acid methyl or ethyl ester). At the 2 or 4 mg dose, all compounds produced pleasant and robust cooling sensations on the tongue, extending down to the back of throat, and lasted for about 30 minutes and longer. The onset effect was usually within 30 seconds of application.

`CCOC(=O)CCNC(=O)C1CC(C)CCC1C(C)C` (stereo not drawn) [β-Ala Et Ester]: the lipophilicity (Log P) in series [1] was 3.1. In series [2], the “Duration of Skin Cooling” value stood at 1.4 h, the “Duration of Action On-Off (minutes): On (onset)” value (“Duration … (onset)” below) turned out to be 3 min, the “Duration of Action On-Off (minutes): duration (offset minus onset)” value (from here on “Duration … (offset minus onset)”) came to 87 min and the “Duration of Action On-Off (minutes): Off (offset)” value (from here on “Duration … (offset)”) worked out at 90 min. Moreover, the Threshold tongue in series [3] amounted to 1.5 µg.

`CC(C)[C@@H]1CC[C@@H](C)C[C@H]1C(=O)N[C@H]1CCOC1=O` [L-Hsl, (1R,2S,5R)-2-isopropyl-5-methyl-cyclohexanecarboxylic acid (S)-(2-oxo-tetrahydro-furan-3-yl)-amide] registered a logP in series [1] of 2.5. Besides, the “cooling sensation at the back of the throat” value in series [4] was “robust and prolonged cooling”. For the same compound, in series [2], the “Duration of Skin Cooling” value stood at 1.4 h, the “Duration … (onset)” value is 2 min, the “Duration … (offset minus onset)” value is 85 min and the “Duration … (offset)” value stood at 87 min. Besides, the “refreshing cooling and absence of skin irritation or eye irritation (“perfect cool”)” value in series [2] was “L-Hsl (*)”.

With `CCCOc1ccc(NC(=O)C2CC(C)CCC2C(C)C)cc1` (centres unmarked) [CPS-310], the “Log P” value in series [1] is given as 6.3. Further, in series [2], the “Duration of Skin Cooling” value was “not active” and the “Duration … (offset minus onset)” value is “inactive”.

Consider `CCOc1ccc(NC(=O)C2CC(C)CCC2C(C)C)cc1` (centres unmarked) [CPS-306], for which the “Log P” value in series [1] stood at 5.8. Further, in series [2], the “Duration of Skin Cooling” value is “not active” and the “Duration … (offset minus onset)” value was “inactive”.

As to `CCCCOc1ccc(NC(=O)C2CC(C)CCC2C(C)C)cc1` (centres unmarked) [CPS-308], in series [1], the “Log P” value turned out to be 6.9. Further, in series [2], the “Duration of Skin Cooling” value is “not active” and the “Duration … (offset minus onset)” value was “inactive”.

`COc1ccc(NC(=O)C2CC(C)CCC2C(C)C)c(OC)c1` (centres unmarked) [CPS-309]: the “Log P” value in series [1] came out at 5.0. Further, in series [2], the “Duration of Skin Cooling” value amounted to 0.6 h, the “Duration … (onset)” value was 13 min, the “Duration … (offset minus onset)” value was determined as 37 min and the “Duration … (offset)” value stood at 50 min.

`COC(=O)CNC(=O)C1CC(C)CCC1C(C)C` (centres unmarked) [Gly Me Ester (WS-31), reference compound]: the “Log P” value in series [1] came out at 2.4. Also, in series [2], the “Duration of Skin Cooling” value came out at 0.3 h, the “Duration … (onset)” value is 5 min, the “Duration … (offset minus onset)” value worked out at 20 min and the “Duration … (offset)” value stood at 25 min. For the same compound, the Threshold tongue in series [3] is 0.6 µg.

`CC(C)[C@@H]1CC[C@@H](C)C[C@H]1C(=O)N[C@@H]1CCOC1=O` [D-Hsl, (1R,2S,5R)-2-isopropyl-5-methyl-cyclohexanecarboxylic acid ((R)-2-oxo-tetrahydro-furan-3-yl)-amide] showed a lipophilicity (logP) in series [1] of 2.5. In addition, the “cooling sensation at the back of the throat” value in series [4] was “robust and prolonged cooling”. In series [2], the “Duration of Skin Cooling” value was 1.3 h, the “Duration … (onset)” value turned out to be 2 min, the “Duration … (offset minus onset)” value was determined as 78 min and the “Duration … (offset)” value stood at 80 min. In addition, the “refreshing cooling and absence of skin irritation or eye irritation (“perfect cool”)” value in series [2] is on record as “D-Hsl (*)”.

Compound `COC(=O)C1CCCN1C(=O)[C@@H]1C[C@H](C)CC[C@H]1C(C)C` (some centres unmarked) [Pro Me Ester] displayed a log partition coefficient (logP) in series [1] of 3.3. Besides, in series [2], the “Duration of Skin Cooling” value is “not active” and the “Duration … (offset minus onset)” value is recorded as “not active”.

As to `COC(=O)C(NC(=O)C1CC(C)CCC1C(C)C)C(C)C` [L-Val Me Ester], the “Log P” value in series [1] was 4.2. Also, in series [2], the “Duration of Skin Cooling” value is given as “not active” and the “Duration … (offset minus onset)” value is reported as “not active”.

For `CC1CCC(C(C)C)C(C(=O)NC(C)C)C1` (centres unmarked) [WS-10, reference compound], in series [1], the lipophilicity (Log P) came out at 4.1. In series [2], the “Duration of Skin Cooling” value was determined as 0.3 h, the “Duration … (onset)” value is 6 min, the “Duration … (offset minus onset)” value amounted to 19 min and the “Duration … (offset)” value is 25 min. In series [3], this compound had a Threshold tongue of 0.4 µg.

In the case of `COC(=O)C(C)NC(=O)C1CC(C)CCC1C(C)C` [L-Ala Me Ester], the lipophilicity (Log P) in series [1] amounted to 2.8. In addition, in series [2], the “Duration of Skin Cooling” value came to 1.3 h, the “Duration … (onset)” value was determined as 1 min, the “Duration … (offset minus onset)” value amounted to 79 min and the “Duration … (offset)” value is 80 min. Besides, the Threshold tongue in series [3] was 0.6 µg.

For `COC(=O)CCC(NC(=O)C1CC(C)CCC1C(C)C)C(=O)OC` (centres unmarked) [Glu(OMe) Me Ester], the “Log P” value in series [1] is reported as 2.2. Further, in series [2], the “Duration of Skin Cooling” value is given as “not active” and the “Duration … (offset minus onset)” value is “not active”.

Take `CCC(C)NC(=O)C1CC(C)CCC1C(C)C` (centres unmarked) [WS-34, reference compound]: the “Log P” value in series [1] is recorded as 4.6. Also, in series [2], the “Duration of Skin Cooling” value is given as “not active” and the “Duration … (offset minus onset)” value is “inactive”. The same compound came in with a Threshold tongue in series [3] of 0.7 µg.

On to `CCOC(=O)C(C)NC(=O)C1CC(C)CCC1C(C)C` [L-Ala Et Ester], for which, in series [1], the “Log P” value came out at 3.1. Further, in series [2], the “Duration of Skin Cooling” value came to 0.7 h, the “Duration … (onset)” value came out at 8 min, the “Duration … (offset minus onset)” value turned out to be 44 min and the “Duration … (offset)” value came out at 52 min. In addition, in series [3], the Threshold tongue stood at 0.4 µg.
